Experimental data taken from patent publication US20250186503A1, “METHODS AND COMBINATIONS FOR TREATMENT AND T CELL MODULATION” (Juno Therapeutics, Inc., priority 2018, published 2025).

Tests used:
RPMI-8226 [1] = assay: Serial restimulation with BCMA-conjugated beads, cytolytic activity against RPMI-8226; format: cell-based, human; conditions: 5 μM
Procedure: Cells from each condition were plated in triplicate. The % cell killing compared to vehicle only control (set at 100%) was determined.

RPMI-8226 [2] = assay: 3D myeloma model (reconstructed bone marrow embedded with RPMI-8226); format: cell-based, human; conditions: 1.0 μM
Text: To assess cell function in the context of a three-dimensional (3-D) human BCMA-expressing tissue microenvironment, a reconstructed bone marrow (rBone™) (z[…], San Jose, CA) was embedded with BCMA-expressing RPMI-8226.
After 2 or 7 days, cells were isolated and assessed by flow cytometry for surface expression of CD3, CD25, CD4, and CD8.

OPM-2 [3] = assay: Cytolytic activity of anti-BCMA CAR T cells against OPM-2 target cells; format: cell-based, human
Procedure: […]. The OPM-2 cells were labeled with NucLight Red (NLR) to permit tracking of target cells by microscopy substantially as described above. […] […].
[…]. Cytolytic activity was measured by loss of red fluorescent cells. […].

RPMI-8226 [4] = assay: Cytokine production of anti-BCMA CAR T cells incubated with RPMI-8226 target cells; format: cell-based, human
Text: Culture of T cells not expressing the anti-BCMA CAR (mock) was used as a control.

OPM-2 [5] = assay: Cytokine production of anti-BCMA CAR T cells incubated with OPM-2 target cells; format: cell-based, human
RPMI-8226 [6] = assay: Cytolytic activity against RPMI-8226 after seven days incubation with BCMA-conjugated beads; format: cell-based, human
Procedure: Cytolytic activity of CAR+ T cells after incubation with BCMA-conjugated beads was assessed by incubation with the BCMA-expressing target cell line RPMI-8226, which is a BCMA+multiple myeloma cell line. […] The number of viable cells was normalized to cells at day 0 prior to incubation with the RPMI-8226 target cells.

[7] = test system: anti-CD19 CAR-expressing T cells; assay: T cell surface marker expression after co-culture with K562.CD19 target cells; format: cell-based, human; conditions: for expression of CD27 / expression of the other assessed activation markers / expression of CD45RO: 24 hours; for expression of CD45RO: all donors and E:T ratios; for expression of CD69 and LAG3: cells derived from donor 3
Procedure: Cytokine expression, target cell cytolysis and expression of surface markers of anti-CD19 CAR-expressing T cells were assessed.

[8] = test system: anti-CD19 CAR-expressing T cells with K562.CD19 cells; assay: Serial stimulation of anti-CD19 CAR+ T cells with irradiated K562.CD19 cells (surface markers, cytolytic activity, expansion); format: cell-based, human; conditions: CD4+ and CD8+ CAR-expressing T cells, all three donors
RL cells = assay: Rescue of chronically stimulated anti-CD19 CAR T cells cultured with RL cells; format: cell-based; conditions: Compound 1 (1 μM) or Compound 2 (0.001 μM, 0.01 μM or 0.1 μM)
Procedure: The RL cells were further used to assess the ability of immunomodulatory compounds to rescue or reverse the anti-CD19 CAR T cells from exhaustion. […] Long-term, chronic stimulation was carried out by stimulation of CAR T cells with 30 μg/mL plate-bound anti-idiotypic (anti-ID) antibody for 6 days, substantially as described in Example 22. After the chronic stimulation, the CAR-T cells were cultured with RL cells in the presence of Compound 1 or Compound 2. Cytolytic activity was assessed over time by measuring tumor cell number in the culture.

RL tumor spheroids = assay: RL tumor spheroid model with anti-CD19 CAR T cells; format: cell-based; conditions: Day 4; 1 μM Compound 1; 0.01 μM or 0.1 μM Compound 2
Procedure: Cytolytic activity was also assessed in a spheroid model. About 5,000 RL cells were plated 48 hours prior to addition of 5,000 anti-CD19 CAR T cells (1:1 E:T ratio).

Aiolos = target: T1, Aiolos (Homo sapiens, UniProt Q96SW2+Q9UKT9); assay: Intracellular Aiolos expression in anti-CD19 CAR+ T cells stimulated with 1 μg/ml CAR-specific anti-idiotypic antibody; format: cell-based; conditions: 10 to 10000 nM, overnight
T1 construct: assess intracellular levels of Ikaros and Aiolos in CD4+ CAR+ or CD8+ CAR+ cells; endogenous in cells; host or cells: primary human CD4+ and CD8+ T cells transduced with an anti-CD19 CAR (FMC63 scFv)
T1 sequence (Q9UKT9 whole entry): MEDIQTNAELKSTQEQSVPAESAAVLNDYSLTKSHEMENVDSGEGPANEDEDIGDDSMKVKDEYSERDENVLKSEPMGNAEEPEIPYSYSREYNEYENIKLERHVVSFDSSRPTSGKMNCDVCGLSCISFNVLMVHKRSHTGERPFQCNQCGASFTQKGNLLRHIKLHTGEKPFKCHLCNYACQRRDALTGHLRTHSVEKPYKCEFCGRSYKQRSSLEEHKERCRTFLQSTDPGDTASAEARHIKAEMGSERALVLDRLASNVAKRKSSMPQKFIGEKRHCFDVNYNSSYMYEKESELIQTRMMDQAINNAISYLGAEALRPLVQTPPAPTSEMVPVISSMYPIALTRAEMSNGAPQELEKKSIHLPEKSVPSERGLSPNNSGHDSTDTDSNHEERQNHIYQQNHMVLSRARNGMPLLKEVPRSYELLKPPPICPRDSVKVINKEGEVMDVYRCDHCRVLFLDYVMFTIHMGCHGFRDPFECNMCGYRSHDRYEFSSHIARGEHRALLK
T1 sequence (Q96SW2 whole entry): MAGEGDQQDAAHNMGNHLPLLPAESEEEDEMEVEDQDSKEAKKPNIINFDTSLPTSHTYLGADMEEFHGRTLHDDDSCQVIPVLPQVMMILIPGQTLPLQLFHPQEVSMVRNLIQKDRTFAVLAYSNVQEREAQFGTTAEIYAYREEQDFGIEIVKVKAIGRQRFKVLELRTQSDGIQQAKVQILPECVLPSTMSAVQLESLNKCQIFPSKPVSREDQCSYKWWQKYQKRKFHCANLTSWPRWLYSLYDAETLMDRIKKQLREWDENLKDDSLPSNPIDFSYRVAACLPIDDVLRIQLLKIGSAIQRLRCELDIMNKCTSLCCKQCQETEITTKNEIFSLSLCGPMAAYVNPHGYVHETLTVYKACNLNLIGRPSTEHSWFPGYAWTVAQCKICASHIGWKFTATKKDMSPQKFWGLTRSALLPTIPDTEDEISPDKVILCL
T1 sequence (Q16531 whole entry partner): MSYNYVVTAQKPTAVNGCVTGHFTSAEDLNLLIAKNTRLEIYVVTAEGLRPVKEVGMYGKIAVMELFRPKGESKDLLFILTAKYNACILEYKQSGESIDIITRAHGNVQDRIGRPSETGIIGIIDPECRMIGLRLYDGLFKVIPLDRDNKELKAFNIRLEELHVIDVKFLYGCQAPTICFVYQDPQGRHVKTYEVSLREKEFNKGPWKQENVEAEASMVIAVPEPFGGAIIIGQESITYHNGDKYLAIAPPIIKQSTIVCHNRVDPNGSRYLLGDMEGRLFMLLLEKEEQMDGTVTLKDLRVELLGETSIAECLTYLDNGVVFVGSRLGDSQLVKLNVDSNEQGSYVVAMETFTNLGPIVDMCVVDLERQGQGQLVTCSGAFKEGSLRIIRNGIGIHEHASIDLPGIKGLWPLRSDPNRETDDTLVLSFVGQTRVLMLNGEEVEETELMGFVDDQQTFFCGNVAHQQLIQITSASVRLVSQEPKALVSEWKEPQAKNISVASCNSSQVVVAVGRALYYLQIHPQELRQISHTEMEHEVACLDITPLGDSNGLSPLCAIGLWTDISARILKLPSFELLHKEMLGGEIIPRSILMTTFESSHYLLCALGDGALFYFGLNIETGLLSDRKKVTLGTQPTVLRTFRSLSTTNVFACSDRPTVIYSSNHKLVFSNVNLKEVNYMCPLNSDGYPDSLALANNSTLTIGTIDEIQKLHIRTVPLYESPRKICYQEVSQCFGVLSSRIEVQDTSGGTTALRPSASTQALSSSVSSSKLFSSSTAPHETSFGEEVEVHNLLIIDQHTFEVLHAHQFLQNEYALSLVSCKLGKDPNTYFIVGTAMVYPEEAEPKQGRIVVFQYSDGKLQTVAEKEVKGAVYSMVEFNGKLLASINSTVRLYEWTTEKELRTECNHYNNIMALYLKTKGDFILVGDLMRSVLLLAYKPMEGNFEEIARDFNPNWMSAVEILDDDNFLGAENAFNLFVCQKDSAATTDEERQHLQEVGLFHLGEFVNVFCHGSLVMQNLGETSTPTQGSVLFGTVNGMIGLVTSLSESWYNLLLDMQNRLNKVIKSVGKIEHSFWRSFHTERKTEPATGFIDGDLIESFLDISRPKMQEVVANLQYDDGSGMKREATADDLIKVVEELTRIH
Procedure: (§1) Following overnight incubation, anti-CD19 CAR-expressing T cells were stained with antibodies and analyzed by flow cytometry to assess intracellular levels of Ikaros and Aiolos in the CD4+ CAR+ or CD8+ CAR+ cells, as measured by median fluorescence intensity (MFI).
as §1, with “in” for “in the”, “(MFI). Median fluorescence intensity (MFI) values for Ikaros and Aiolos were normalized and calculated as a percentage relative to vehicle control.” for “(MFI).”

[9] = test system: Raji and Granta-519 tumor cells; assay: CAR T function against Raji and Granta-519 tumor cells after concurrent treatment during chronic stimulation; format: cell-based, human; set-up: dose or concentration left out as unconfirmed
[10] = test system: Granta-519 tumor spheroids; assay: Granta-519 tumor spheroids, concurrent versus rescue treatment of long-term stimulated CAR T cells; format: cell-based, human; set-up: cytokine levels at day 5: dose or concentration left out as unconfirmed
Procedure: The long-term stimulated anti-CD19 CAR-expressing T cells were co-cultured by incubation with Granta-519 tumor spheroids and cells were assessed at various time points for cytolytic function and cytokine function. During concurrent treatments Compound 1 was present during the long-term stimulation but was not present during the co-culture with target cells. During the rescue treatment Compound 1 was not present during the long-term stimulation but was present during the co-culture with target cells.

[11] = given for five days followed by a two day rest period (5/7 days), subjects with DLBCL; cited from earlier work

Question: With `Nc1cccc2c1CN(C1CCC(=O)NC1=O)C2=O` (stereo not shown) [lenalidomide, 3-(4-amino-1-oxo-1,3-dihydro-2H-isoindol-2-yl)piperidine-2,6-dione] as the compound, how does the “killing efficacy of anti-BCMA CAR+ T cells” value (RPMI-8226 [1]; further donor (FIG. 23B), all time points) read?
Answer: The value was “increased killing efficacy”.

Question: And the “cytolytic activity of anti-BCMA CAR+ T cells” value (RPMI-8226 [1]; preincubated 7 days or 14 days, exemplary donor)?
Answer: The value was “greater cytolytic activity”.

Question: And the “CD25+ expression in CD4+ and CD8+ T cell populations” value (RPMI-8226 [2])?
Answer: The value was “increase”.

Question: And the “total number of CD3+ cells at day 7” value (RPMI-8226 [2]; cultures with anti-BCMA CAR+ T cells)?
Answer: Its value is “increase”.

Question: And the “cytolytic activity of anti-BCMA CAR+ T cells against OPM-2” value (OPM-2 [3]; 0.01-10 μM, E:T 1:1, 7 days, four donors, dose-dependent)?
Answer: Its value is “enhance”.

Question: What about the “antigen-specific anti-BCMA CAR-T cytolytic activity and cytokine production” value (OPM-2 [3]; healthy donor and pomalidomide-refractory multiple myeloma patient CAR T, 0.01-10 μM) of the same compound?
Answer: Its value is “increased”.

Question: What about the “anti-BCMA CAR T cytolytic activity against OPM-2” value (OPM-2 [3]; three healthy donors and one IMiD-refractory patient, all donors) of the same compound?
Answer: Its value is “Increased”.

Question: What about the “IL-2, IFNγ and TNF-α in culture supernatants” value (RPMI-8226 [4]; 10 μM, E:T 0.3:1, 48 hours) of the same compound?
Answer: The value was “increase”.

Question: And the “cytokine production in RPMI-8226 co-culture” value (RPMI-8226 [4]; all donors and cytokines)?
Answer: Its value is “significantly increased”.

Question: What about the “IFNγ, IL-2 and TNF-α production and/or accumulation” value (OPM-2 [5]; 0.01-10 μM, E:T 1:1, 24 hours, dose-dependent) of the same compound?
Answer: Its value is “enhance”.

Question: And the “IFN-γ, IL-2 and TNF-α production on co-culture with OPM-2” value (OPM-2 [5]; all CAR T donors, concentration-dependent)?
Answer: Its value is “significantly increased”.

Question: What about the “RPMI 8226 target cell viability without CAR T cells” value (RPMI-8226 [6]; 5 μM) of the same compound?
Answer: Its value is “did not directly influence target cell viability”.

Question: What about the “cytolytic activity of the CAR+ T cells” value (RPMI-8226 [6]; 5 μM preincubation during the seven day bead incubation) of the same compound?
Answer: The value was “increased”.

Question: What about the killing activity (RPMI-8226 [6]; lenalidomide present during the cell killing assay) of the same compound?
Answer: Its killing activity is “did not substantially affect”.

Question: And the “expression of CD27” value [7]?
Answer: The value was “downregulated in a concentration-dependent manner”.

Question: What about the “expression of the other assessed activation markers” value [7] of the same compound?
Answer: Its value is “remained unchanged”.

Question: And the “expression of CD45RO” value [7]?
Answer: Its value is “increased”.

Question: And the “expression of CD69 and LAG3” value [7]?
Answer: Its value is “not”.

Question: And the “expression of CD28” value [8]?
Answer: The value was “decreased in a dose-dependent manner”.

Question: Which “CAR T cell cytolytic activity against RL cells” value (RL cells) does the source give for `O=C1CC[C@H](N2Cc3c(OCc4ccc(CN5CCOCC5)cc4)cccc3C2=O)C(=O)N1` [Compound 2, (S)-3-[4-(4-morpholin-4-ylmethyl-benzyloxy)-1-oxo-1,3-dihydro-isoindol-2-yl]-piperidine-2,6-dione] here?
Answer: The value was “substantially improved CAR T cell cytolytic activity”.

Question: And the “RL tumor spheroid sensitivity to compound” value (RL tumor spheroids)?
Answer: Its value is “sensitive”.

Question: What about the “intracellular Aiolos expression” value (Aiolos) of the same compound?
Answer: Its value is “concentration dependent decrease”.

Question: For `Cc1nc2cccc(N)c2c(=O)n1C1CCC(=O)NC1=O` (stereo not shown) [Compound 1, 3-(5-amino-2-methyl-4-oxo-4H-quinazolin-3-yl)-piperidine-2,6-dione], which “CAR T cell cytolytic activity against RL cells” value (RL cells) is on record?
Answer: Its value is “substantially improved CAR T cell cytolytic activity”.

Question: What about the “cytolytic activity (tumor cell number over time)” value ([9]; 0. and Compound 1 concurrent, 2.5:1 E:T) of the same compound?
Answer: Its value is “improved”.

Question: And the “IFN-γ and TNF-α production” value ([9]; 24 hours, both cell lines)?
Answer: The value was “increased relative to vehicle control”.

Question: What about the “cytokine levels at day 5” value ([10]; concurrent treatment) of the same compound?
Answer: The value was “enhanced IFN-γ”.

Question: And the “tumor spheroid size at day 9” value ([10]; concurrent treatment with long-term stimulation)?
Answer: The value was “concentration dependent decrease in tumor volume”.

Question: And the “cytokine levels at day 5” value ([10]; delayed treatment with Compound 1)?
Answer: Its value is “enhanced production of both IFN-γ and TNF-α”.

Question: What about the “tumor spheroid size at day 9” value ([10]; subsequent treatment after long-term stimulation) of the same compound?
Answer: The value was “concentration dependent decrease in tumor volume”.

Question: And the “RL tumor spheroid sensitivity to compound” value (RL tumor spheroids)?
Answer: The value was “sensitive”.

Question: And the “maximum tolerated dose (MTD)” value [11]?
Answer: The value was 4 mg.

Question: What about the “expression of CD27” value [7] of the same compound?
Answer: The value was “downregulated in a concentration-dependent manner”.

Question: What about the “expression of the other assessed activation markers” value [7] of the same compound?
Answer: The value was “remained unchanged”.

Question: And the “expression of CD45RO” value [7]?
Answer: Its value is “increased”.

Question: What about the “expression of CD69 and LAG3” value [7] of the same compound?
Answer: The value was “increased in a concentration-dependent manner”.

Question: And the “expression of CD28” value [8]?
Answer: Its value is “decreased in a dose-dependent manner”.

Question: What about the “intracellular Aiolos expression” value (Aiolos) of the same compound?
Answer: The value was “concentration dependent decrease”.
